The text below walks through data of PMC12352620, “Fragment-based discovery of dual ligand pharmacophores for lipid-sensing transcription factors for designed polypharmacology” (RSC Medicinal Chemistry, 2025).

Format in all cases: cell-based
One experiment has as its target T1, THRα (Homo sapiens, UniProt P10827).
T1 construct: expressed in transfected cells; host or cells: HEK293T
T1 sequence (P10827 128-410 isoform P10827-2 limits assumed): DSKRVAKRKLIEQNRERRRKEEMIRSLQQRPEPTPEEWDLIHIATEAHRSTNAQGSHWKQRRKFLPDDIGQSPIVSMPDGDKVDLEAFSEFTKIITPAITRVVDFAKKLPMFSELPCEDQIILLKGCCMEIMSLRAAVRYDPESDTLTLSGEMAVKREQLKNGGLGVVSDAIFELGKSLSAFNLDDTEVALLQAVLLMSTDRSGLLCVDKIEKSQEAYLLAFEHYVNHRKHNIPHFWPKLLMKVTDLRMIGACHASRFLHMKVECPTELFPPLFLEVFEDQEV
The experiment is described as follows: Gal4-hybrid reporter gene assay THRα. Particulars: mean ± S.E.M., n ≥ 3; for EC50 / EC50 THRα: HEK293T, Gal4-hybrid reporter, Inactive = tested 1–300 μM; for max. fold activation THRα: maximum reporter activation vs DMSO (0.1%) treated cells. As to the method:
(§1) NR modulation was determined as described previously[45] in Gal4 hybrid reporter gene assays in HEK293T cells (German Collection of Microorganisms and Cell Culture GmbH, DSMZ) using pFR-Luc (Stratagene, La Jolla, CA, USA; reporter), pRL-SV40 (Promega, Madison, WI, USA; internal control) and the hybrid receptor clones pFA-CMV-hTHRα-LBD,[46] pFA-CMV-hPPARγ-LBD,[47] pFA-CMV-hFXR-LBD,[48] and pFA-CMV-hRXRα-LBD,[49] coding for the hinge region and ligand binding domain of the canonical isoform of the respective NR. Cells were cultured in Dulbecco's modified Eagle's medium (DMEM), high glucose supplemented with 10% fetal calf serum (FCS), sodium pyruvate (1 mM), penicillin (100 U mL^−1), and streptomycin (100 μg mL^−1) at 37 °C and 5% CO2 and seeded in 96-well plates (3 × 10^4 cells per well). After 24 h, medium was changed to Opti-MEM without supplements and cells were transiently transfected using Lipofectamine LTX reagent (Invitrogen, Carlsbad, CA, USA) according to the manufacturer's protocol. Five hours after transfection, cells were incubated with the test compounds in Opti-MEM supplemented with penicillin (100 U mL^−1), streptomycin (100 μg mL^−1) and 0.1% DMSO for 16 h before luciferase activity was measured using the Dual-Glo Luciferase Assay System (Promega) according to the manufacturer's protocol on a Tecan Spark luminometer (Tecan Deutschland GmbH, Crailsheim, Germany). Firefly luminescence was divided by Renilla luminescence and multiplied by 1000 resulting in relative light units (RLU) to normalize for transfection efficiency and cell growth. Fold activation was obtained by dividing the mean RLU of test compound by the mean RLU of the untreated control. All samples were tested in at least three biologically independent experiments in duplicates. For dose–response curve fitting and calculation of EC50 values, the equation “[agonist] vs. response − variable slope (four parameters)” was used in GraphPad Prism (version 7.00, GraphPad Software, La Jolla, CA, USA). For selectivity profiling, the hybrid reporter gene assay was performed with Gal4 fusion receptor plasmids for RARα, PPARα, PPARδ, VDR, CAR and LXRα. The following reference agonists were used: triiodothyronine (1 μM, THR), all-trans retinoic acid (1 μM, RAR), GW7647 (1 μM, PPARα), pioglitazone (1 μM, PPARγ), L165041 (1 μM, PPARδ), calcitriol (1 μM, VDR), CITCO (1 μM, CAR), T0901317 (1 μM, LXR), GW4064 (1 μM, FXR), bexarotene (1 μM, RXR).
(Reporter assays use an easily measured gene product as a stand-in for the process of interest.)

The next experiment addresses T2, RXRα (Homo sapiens, UniProt P19793).
T2 construct: expressed in transfected cells; host or cells: HEK293T
T2 sequence (P19793 227-458 limits assumed): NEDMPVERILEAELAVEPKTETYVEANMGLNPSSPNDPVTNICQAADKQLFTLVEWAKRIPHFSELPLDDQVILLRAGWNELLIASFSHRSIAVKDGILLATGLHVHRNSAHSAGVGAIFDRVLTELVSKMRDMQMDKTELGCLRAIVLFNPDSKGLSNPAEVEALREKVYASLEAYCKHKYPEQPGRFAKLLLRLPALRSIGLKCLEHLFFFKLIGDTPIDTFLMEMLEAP
As to the kind of experiment: Gal4-hybrid reporter gene assay RXRα. The note with it: mean ± S.E.M., n ≥ 3; for EC50 / EC50 RXRα: HEK293T, Gal4-hybrid reporter, Inactive = tested 1–300 μM; for max. fold activation RXRα: maximum reporter activation vs DMSO (0.1%) treated cells. As to the method: as §1

A further experiment deals with T3, PPARγ (Homo sapiens, UniProt P37231).
T3 construct: expressed in transfected cells; host or cells: HEK293T
T3 sequence (P37231 238-503 limits assumed): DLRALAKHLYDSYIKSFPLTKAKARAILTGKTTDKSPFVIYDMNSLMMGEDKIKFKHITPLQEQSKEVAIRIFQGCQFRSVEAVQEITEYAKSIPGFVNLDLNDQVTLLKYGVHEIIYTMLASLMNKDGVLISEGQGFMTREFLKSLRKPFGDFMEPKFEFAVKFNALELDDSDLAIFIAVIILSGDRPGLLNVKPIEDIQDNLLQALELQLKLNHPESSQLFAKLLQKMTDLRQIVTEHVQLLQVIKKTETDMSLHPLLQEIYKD
The experiment is described as follows: Gal4-hybrid reporter gene assay PPARγ. Particulars: mean ± S.E.M., n ≥ 3; for EC50: HEK293T, Gal4-hybrid reporter, Inactive = tested 1–300 μM; for max. fold activation PPARγ: maximum reporter activation vs DMSO (0.1%) treated cells. As to the method:
as §1

The target of the next experiment is T4, FXR (Homo sapiens, UniProt Q96RI1).
T4 construct: expressed in transfected cells; host or cells: HEK293T
T4 sequence (Q96RI1 262-486 limits assumed): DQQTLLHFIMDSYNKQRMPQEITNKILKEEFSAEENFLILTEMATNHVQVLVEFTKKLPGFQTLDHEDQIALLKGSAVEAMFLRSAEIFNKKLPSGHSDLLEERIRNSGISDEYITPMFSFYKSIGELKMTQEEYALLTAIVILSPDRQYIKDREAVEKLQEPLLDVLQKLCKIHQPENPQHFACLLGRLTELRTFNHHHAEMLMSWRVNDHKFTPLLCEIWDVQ
As to the kind of experiment: Gal4-hybrid reporter gene assay FXR. The note with it: mean ± S.E.M., n ≥ 3; for EC50 FXR / EC50: HEK293T, Gal4-hybrid reporter, Inactive = tested 1–300 μM; for max. fold activation FXR: maximum reporter activation vs DMSO (0.1%) treated cells. As to the method: as §1

The term EC50 denotes the concentration needed to bring the measured effect to its halfway point. A low value points to higher potency in that assay. With `CCc1c(C(=O)O)cnn1-c1ccccc1` [compound 78], on THRα, a half-maximal effect (EC50) was put at 112 ± 44 µM and the “max. fold activation THRα” value is listed as “(2.0 ± 0.1-fold)”. Further, at RXRα, the EC50 was 166 ± 10 µM and the “max. fold activation RXRα” value is recorded as “(1.6 ± 0.1-fold)”. At PPARγ, the response was half-maximal at 237 ± 37 µM (EC50) and the “max. fold activation PPARγ” value is “(6 ± 1-fold)”. In addition, the “EC50 FXR” value at FXR is “Inactive”.
Consider `O=C(O)/C=C/C(=O)c1cccc(Cl)c1` [2.16], for which the “EC50 THRα” value at THRα is listed as “Inactive”. The “EC50 RXRα” value on RXRα is “Inactive”. For the same compound, at PPARγ, the midpoint of the response, the EC50, lay at 34 ± 7 µM and the “max. fold activation PPARγ” value is recorded as “(8.2 ± 0.5-fold)”. Also, on FXR, the “EC50 FXR” value was “Inactive”.
Take `Cc1ccc(C(=O)/C=C/C(=O)O)cc1` [4.4, (E)-4-Oxo-4-(p-tolyl)but-2-enoic acid]: at THRα, the EC50 worked out at 28 ± 3 µM and the “max. fold activation THRα” value was “(3.4 ± 0.4-fold)”. Moreover, on RXRα, a half-maximal effect (EC50) was put at 35 ± 1 µM and the “max. fold activation RXRα” value is on record as “(5.3 ± 0.2-fold)”. Further, at PPARγ, the EC50 is 37 ± 1 µM and the “max. fold activation PPARγ” value is reported as “(17.5 ± 0.9-fold)”. At FXR, a half-maximal effect (EC50) was put at 27 ± 9 µM and the “max. fold activation FXR” value is “(3.4 ± 0.7-fold)”.
In the case of `O=C(O)c1ccc(OCc2ccccc2)cc1` [compound 22], on THRα, the EC50 stood at 95 ± 9 µM and the “max. fold activation THRα” value is given as “(8.8 ± 0.5-fold)”. Moreover, the “EC50 RXRα” value on RXRα is “Inactive”. For the same compound, at PPARγ, the EC50 turned out to be 136 ± 19 µM and the “max. fold activation PPARγ” value is “(28 ± 2-fold)”. In addition, on FXR, the “EC50 FXR” value is on record as “Inactive”.
`COc1ccc(/C=C/C(=O)O)cc1` [2.12]: the “EC50 THRα” value on THRα is “Inactive”. Moreover, at RXRα, the “EC50 RXRα” value is listed as “Inactive”. Also, at PPARγ, a half-maximal effect (EC50) was put at 126 ± 9 µM and the “max. fold activation PPARγ” value was “(6.7 ± 0.3-fold)”. Further, the “EC50 FXR” value on FXR is “Inactive”.
Take `Cc1cccc(C(=O)/C=C/C(=O)O)c1` [4.3, (E)-4-Oxo-4-(m-tolyl)but-2-enoic acid]: at THRα, the midpoint of the response, the EC50, lay at 19 ± 8 µM and the “max. fold activation THRα” value is given as “(3.1 ± 0.6-fold)”. In addition, at RXRα, the response was half-maximal at 30 ± 5 µM (EC50) and the “max. fold activation RXRα” value is “(4.7 ± 0.5-fold)”. Moreover, at PPARγ, a half-maximal effect (EC50) was put at 38 ± 1 µM and the “max. fold activation PPARγ” value is “(19 ± 1-fold)”. In addition, on FXR, the EC50 turned out to be 22 ± 5 µM and the “max. fold activation FXR” value is recorded as “(3.4 ± 0.4-fold)”.
In the case of `O=C(O)/C=C/C(=O)c1ccc(F)cc1F` [2.28], on THRα, the EC50 turned out to be 10 ± 3 µM and the “max. fold activation THRα” value is reported as “(1.7 ± 0.1-fold)”. In addition, the “EC50 RXRα” value on RXRα is “Inactive”. In addition, on PPARγ, it took 51 ± 9 µM to reach a half-maximal effect (EC50) and the “max. fold activation PPARγ” value is “(11.0 ± 0.5-fold)”. Moreover, the “EC50 FXR” value at FXR is “Inactive”.
`C/C(=C\C(=O)O)c1ccc(C(F)(F)F)cc1` [compound 91]: at THRα, the midpoint of the response, the EC50, lay at 92 ± 29 µM and the “max. fold activation THRα” value is “(2.7 ± 0.3-fold)”. Also, on RXRα, the response was half-maximal at 134 ± 41 µM (EC50) and the “max. fold activation RXRα” value is recorded as “(1.9 ± 0.9-fold)”. Besides, at PPARγ, the EC50 turned out to be 255 ± 15 µM and the “max. fold activation PPARγ” value is listed as “(4.3 ± 0.2-fold)”. For the same compound, the “EC50 FXR” value on FXR was “Inactive”.
